Ki data for five compounds are collected here from patent publication US12559529B2, “NPY2 receptor agonists” (Boehringer Ingelheim International GmbH, priority 2019, dated 2026).

The structures appear in SMILES notation. pKi: −log10 of the molar value.

The test addresses T1, Human Neuropeptide Y2 Receptor (Homo sapiens, UniProt P49146).
T1 construct: purchased CHEMICON HTS066M
T1 sequence (P49146 1-381): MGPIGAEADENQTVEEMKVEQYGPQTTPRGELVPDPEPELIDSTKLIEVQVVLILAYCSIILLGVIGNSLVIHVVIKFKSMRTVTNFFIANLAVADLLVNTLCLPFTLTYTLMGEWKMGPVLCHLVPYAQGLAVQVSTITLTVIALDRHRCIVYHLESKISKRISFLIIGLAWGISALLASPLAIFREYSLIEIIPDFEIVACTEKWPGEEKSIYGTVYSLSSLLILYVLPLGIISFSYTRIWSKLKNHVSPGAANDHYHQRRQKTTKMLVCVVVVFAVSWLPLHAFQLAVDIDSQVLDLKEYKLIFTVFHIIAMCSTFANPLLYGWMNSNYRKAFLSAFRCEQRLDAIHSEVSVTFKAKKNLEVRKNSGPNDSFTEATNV
In words: Radioligand binding competition assay (RLB). To be noted: Table 3; human 125I-PYY (1-36) 0.02 nM, Y2 receptor membranes; read-out: Ki. In short, it runs like this:
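Competition binding at commercial human NPY Y2 membrane preparations, 0.5 μg protein per well, 2 h incubation at room temperature. Bound and free ligand were separated on GF/C filters and counted; IC50 was fitted by nonlinear regression.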
The pKi is −log10 of the Ki, conventionally taken in molar units. For `CC(C)CC(=O)N[C@@H](C)C(=O)N1CCC[C@H]1C(=O)N[C@@H](CCC(=O)O)C(=O)N[C@@H](CCCCNC(=O)COCCOCCNC(=O)COCCOCCNC(=O)CC[C@H](NC(=O)CCCCCCCCCCCCCCCCC(=O)O)C(=O)O)C(=O)N1CCC[C@H]1C(=O)N[C@@H](CCC(=O)O)C(=O)N[C@@H](CCC(=O)O)C(=O)N[C@@H](CC(=O)O)C(=O)N[C@@H](C)C(=O)N[C@@H](CO)C(=O)N1CCC[C@H]1C(=O)N[C@@H](CCC(=O)O)C(=O)N[C@@H](CCC(=O)O)C(=O)N[C@@H](CC(C)C)C(=O)N[C@@H](CCC(N)=O)C(=O)N[C@@H](CCCCN)C(=O)N[C@@H](Cc1ccc(O)cc1)C(=O)N[C@@H](Cc1ccc(O)cc1)C(=O)N[C@H](C(=O)N[C@@H](C)C(=O)N[C@@H](CC(C)C)C(=O)N[C@@H](CCCNC(=N)N)C(=O)N[C@@H](Cc1c[nH]cn1)C(=O)N[C@@H](Cc1ccc(O)cc1)C(=O)N[C@@H](Cc1ccc(O)cc1)C(=O)N[C@@H](CC(N)=O)C(=O)N[C@@H](Cc1c[nH]c2ccccc12)C(=O)N[C@@H](CC(C)C)C(=O)N[C@H](C(=O)N[C@@H](CCCNC(=N)N)C(=O)N[C@@H](CCC(N)=O)C(=O)N[C@@H](CCCNC(=N)N)C(=O)N[C@@H](Cc1ccc(O)cc1)C(N)=O)[C@@H](C)O)C(C)C` [Compound 107, N{alpha-4}-(3-methylbutanoyl)-N{epsilon-7}-[2-(2-{2-[2-(2-{2-[(4S)-4-carboxy-4-(17-carboxyheptadecanamido)butanamido]ethoxy}ethoxy)acetamido]ethoxy}ethoxy)acetamido]-[4A,7K,9E,18Q,19K,22V,23A,28Y,30W,31L]hPYY (4-36)], the pKi was 8.96. To `CC(C)CC(=O)N[C@@H](C)C(=O)N1CCC[C@H]1C(=O)N[C@@H](CCC(=O)O)C(=O)N[C@@H](CCCCNC(=O)COCCOCCNC(=O)COCCOCCNC(=O)CC[C@H](NC(=O)CCCCCCCCCCCCCCCCC(=O)O)C(=O)O)C(=O)N1CCC[C@H]1C(=O)N[C@@H](CCC(=O)O)C(=O)N[C@@H](CCC(=O)O)C(=O)N[C@@H](CC(=O)O)C(=O)N[C@H](C(=O)N[C@@H](CO)C(=O)N[C@@H](C)C(=O)N[C@@H](CCC(=O)O)C(=O)N[C@@H](CCC(=O)O)C(=O)N[C@@H](CC(C)C)C(=O)N[C@@H](CCC(N)=O)C(=O)N[C@@H](CCCNC(=N)N)C(=O)N[C@@H](Cc1ccc(O)cc1)C(=O)N[C@@H](Cc1ccc(O)cc1)C(=O)N[C@H](C(=O)N[C@@H](CO)C(=O)N[C@@H](CC(C)C)C(=O)N[C@@H](CCCNC(=N)N)C(=O)N[C@@H](Cc1c[nH]cn1)C(=O)N[C@@H](Cc1ccc(O)cc1)C(=O)N[C@@H](Cc1ccc(O)cc1)C(=O)N[C@@H](CC(N)=O)C(=O)N[C@@H](Cc1c[nH]c2ccccc12)C(=O)N[C@@H](CC(C)C)C(=O)N[C@H](C(=O)N[C@@H](CCCNC(=N)N)C(=O)N[C@@H](CCC(N)=O)C(=O)N[C@@H](CCCNC(=N)N)C(=O)N[C@@H](Cc1ccc(O)cc1)C(N)=O)[C@@H](C)O)C(C)C)[C@@H](C)O` [Compound 130, N{alpha-4}-(3-methylbutanoyl)-N{epsilon-7}-[2-(2-{2-[2-(2-{2-[(4S)-4-carboxy-4-(17-carboxyheptadecanamido)butanamido]ethoxy}ethoxy)acetamido]ethoxy}ethoxy)acetamido]-[4A,7K,9E,12T,14A, 18Q,22V,28Y,30W,31L]hPYY (4-36)] belongs 7.95; to `CC(C)CC(=O)N[C@@H](C)C(=O)N1CCC[C@H]1C(=O)N[C@@H](CCC(=O)O)C(=O)N[C@@H](CCCCNC(=O)COCCOCCNC(=O)COCCOCCNC(=O)CC[C@H](NC(=O)CCCCCCCCCCCCCCCCC(=O)O)C(=O)O)C(=O)N1CCC[C@H]1C(=O)N[C@@H](CCC(=O)O)C(=O)N[C@@H](CCC(=O)O)C(=O)N[C@@H](CC(=O)O)C(=O)N[C@H](C(=O)N[C@@H](C)C(=O)N1CCC[C@H]1C(=O)N[C@@H](CCC(=O)O)C(=O)N[C@@H](CCC(=O)O)C(=O)N[C@@H](CC(C)C)C(=O)N[C@@H](CCC(N)=O)C(=O)N[C@@H](CCCNC(=N)N)C(=O)N[C@@H](Cc1ccc(O)cc1)C(=O)N[C@@H](Cc1ccc(O)cc1)C(=O)N[C@H](C(=O)N[C@@H](CO)C(=O)N[C@@H](CC(C)C)C(=O)N[C@@H](CCCNC(=N)N)C(=O)N[C@@H](Cc1c[nH]cn1)C(=O)N[C@@H](Cc1ccc(O)cc1)C(=O)N[C@@H](Cc1ccc(O)cc1)C(=O)N[C@@H](CC(N)=O)C(=O)N[C@@H](Cc1c[nH]c2ccccc12)C(=O)N[C@@H](CC(C)C)C(=O)N[C@H](C(=O)N[C@@H](CCCNC(=N)N)C(=O)N[C@@H](CCC(N)=O)C(=O)N[C@@H](CCCNC(=N)N)C(=O)N[C@@H](Cc1ccc(O)cc1)C(N)=O)[C@@H](C)O)C(C)C)[C@@H](C)O` [Compound 212, N{alpha-4}-(3-methylbutanoyl)-N{epsilon-7}-[2-(2-{2-[2-(2-{2-[(4S)-4-carboxy-4-(17-carboxyheptadecanamido)butanamido]ethoxy}ethoxy)acetamido]ethoxy}ethoxy)acetamido]-[4A,7K,9E,12T,13A,18Q,22V,28Y,30W,31L]hPYY (4-36)], 7.69; to `CC(C)CC(=O)N[C@@H](C)C(=O)N1CCC[C@H]1C(=O)N[C@@H](CCC(=O)O)C(=O)N[C@@H](CCCCNC(=O)COCCOCCNC(=O)COCCOCCNC(=O)CC[C@H](NC(=O)CCCCCCCCCCCCCCCCC(=O)O)C(=O)O)C(=O)N1CCC[C@H]1C(=O)N[C@@H](CCC(=O)O)C(=O)N[C@@H](CCC(=O)O)C(=O)N[C@@H](CC(=O)O)C(=O)N[C@@H](C)C(=O)N[C@@H](C)C(=O)N1CCC[C@H]1C(=O)N[C@@H](CCC(=O)O)C(=O)N[C@@H](CCC(=O)O)C(=O)N[C@@H](CC(C)C)C(=O)N[C@@H](CCC(N)=O)C(=O)N[C@@H](CCC(N)=O)C(=O)N[C@@H](Cc1ccc(O)cc1)C(=O)N[C@@H](Cc1ccc(O)cc1)C(=O)N[C@H](C(=O)N[C@@H](CO)C(=O)N[C@@H](CC(C)C)C(=O)N[C@@H](CCCNC(=N)N)C(=O)N[C@@H](Cc1c[nH]cn1)C(=O)N[C@@H](Cc1ccc(O)cc1)C(=O)N[C@@H](Cc1ccc(O)cc1)C(=O)N[C@@H](CC(N)=O)C(=O)N[C@@H](Cc1c[nH]c2ccccc12)C(=O)N[C@@H](CC(C)C)C(=O)N[C@H](C(=O)N[C@@H](CCCNC(=N)N)C(=O)N[C@@H](CCC(N)=O)C(=O)N[C@@H](CCCNC(=N)N)C(=O)N[C@@H](Cc1ccc(O)cc1)C(N)=O)[C@@H](C)O)C(C)C` [Compound 13, N{alpha-4}-(3-methylbutanoyl)-N{epsilon-7}-[2-(2-{2-[2-(2-{2-[(4S)-4-carboxy-4-(17-carboxyheptadecanamido)butanamido]ethoxy}ethoxy)acetamido]ethoxy}ethoxy)acetamido]-[4A,7K,9E,13A,18Q,19Q,22V,28Y,30W,31L]hPYY (4-36)], 8.89. To `CC(C)CC(=O)N[C@@H](C)C(=O)N1CCC[C@H]1C(=O)N[C@@H](CCC(=O)O)C(=O)N[C@@H](CCCCNC(=O)COCCOCCNC(=O)COCCOCCNC(=O)CC[C@H](NC(=O)CCCCCCCCCCCCCCCCC(=O)O)C(=O)O)C(=O)N1CCC[C@H]1C(=O)N1CCC[C@H]1C(=O)N[C@@H](C)C(=O)N[C@@H](CC(=O)O)C(=O)N[C@@H](C)C(=O)N[C@@H](CO)C(=O)N1CCC[C@H]1C(=O)N[C@@H](CCC(=O)O)C(=O)N[C@@H](CCC(=O)O)C(=O)N[C@@H](CC(C)C)C(=O)N[C@@H](CCC(N)=O)C(=O)N[C@@H](CCCNC(=N)N)C(=O)N[C@@H](Cc1ccc(O)cc1)C(=O)N[C@@H](Cc1ccc(O)cc1)C(=O)N[C@H](C(=O)N[C@@H](CCC(=O)O)C(=O)N[C@@H](CC(C)C)C(=O)N[C@@H](CCCNC(=N)N)C(=O)N[C@@H](Cc1c[nH]cn1)C(=O)N[C@@H](Cc1ccc(O)cc1)C(=O)N[C@@H](Cc1ccc(O)cc1)C(=O)N[C@@H](CC(N)=O)C(=O)N[C@@H](Cc1c[nH]c2ccccc12)C(=O)N[C@@H](CC(C)C)C(=O)N[C@H](C(=O)N[C@@H](CCCNC(=N)N)C(=O)N[C@@H](CCC(N)=O)C(=O)N[C@@H](CCCNC(=N)N)C(=O)N[C@@H](Cc1ccc(O)cc1)C(N)=O)[C@@H](C)O)C(C)C` [Compound 166, N{alpha-4}-(3-methylbutanoyl)-N{epsilon-7}-[2-(2-{2-[2-(2-{2-[(4S)-4-carboxy-4-(17-carboxyheptadecanamido)butanamido]ethoxy}ethoxy)acetamido]ethoxy}ethoxy)acetamido]-[4A,7K,9P,10A,18Q,22V,23E,28Y,30W,31L]hPYY (4-36)] belongs 9.18.
